Values quoted from earlier work as cited in patent US6897334B2 (Board of Regents of the University of Nebraska, priority 2003, dated 2005).

Details: background statement

solubility in an aqueous solution: over 200 mg/ml
SMILES: CCOC(=O)CN(C)C(=N)N [creatine ethyl ester, Creatine ethyl ester]
